What was measured:
[1] = test system: macrophage LDL oxidation systems; assay: macrophage LDL oxidation system, lipid hydroperoxides by HPLC chemiluminescence; format: cell-based; settings: for antioxidative effect in combination with tocopherol: combined with tocopherol, in the course of time, after 24 hours
Excerpt: In separate pre-tests, idebenone was used in the macrophage LDL oxidation systems as anti-oxidant by way of comparison to alpha-tocopherol, ascorbic acid, coenzyme Q-10 and glutathione. This system is suitable for the simulation of cell-promoted oxidation of lipids induced by lipoxygenase, such as for example occurs due to UV radiation. To determine the antioxidative effect of the individual substances, the amount of primary degradation products of lipid peroxidation, the lipid hydroperoxides, occurring in the course of time after 8 or 24 hours was determined by means of an HPLC chemiluminescence method (E. Wieland et al., Fresenius J. Anal. Chem., 343, 62-63 (1992)). […] The values given in the following tables relate to nmoles of measured lipid hydroperoxides per mg of LDL protein.

tissue = settings: in the tissue under pro-oxidative conditions; cited from earlier work
[2] = oral administration; cited from earlier work
[3] = oxidation system A (Mk + LDL), 50 μmoles/litre antioxidant, 8 hours
[4] = oxidation system A (Mk + LDL), 50 μmoles/litre antioxidant, 24 hours
[5] = oxidation system B (Mk + LDL + 100 μmoles/liter α-tocopherol), 50 μmoles/litre further antioxidant, 8 hours
[6] = oxidation system B (Mk + LDL + 100 μmoles/liter α-tocopherol), 50 μmoles/litre further antioxidant, 24 hours
[7] = oxidation system A (Mk + LDL), 10 μmoles/litre antioxidant, 8 hours
[8] = oxidation system A (Mk + LDL), 10 μmoles/litre antioxidant, 24 hours
[9] = oxidation system B (Mk + LDL + 100 μmoles/liter α-tocopherol), 10 μmoles/litre further antioxidant, 8 hours
[10] = oxidation system B (Mk + LDL + 100 μmoles/liter α-tocopherol), 10 μmoles/litre further antioxidant, 24 hours

Compound | lipid hydroperoxides [1, 3] | lipid hydroperoxides [1, 4] | lipid hydroperoxides [1, 5] | lipid hydroperoxides [1, 6] | antioxidative effect in combination with tocopherol [1] | lipid hydroperoxides [1, 7] | lipid hydroperoxides [1, 8] | lipid hydroperoxides [1, 9] | lipid hydroperoxides [1, 10] | other results
N[C@@H](CCC(=O)N[C@@H](CS)C(=O)NCC(=O)O)C(=O)O [glutathione] | 51.7 nmoles per mg of LDL protein | 119.0 nmoles per mg of LDL protein | 23.3 nmoles per mg of LDL protein | 129.8 nmoles per mg of LDL protein | – | – | – | – | – | –
COC1=C(OC)C(=O)C(CCCCCCCCCCO)=C(C)C1=O [idebenone, 6-(10-hydroxydecyl)-2,3-dimethoxy-5-methyl-1,4-benzoquinone] | – | – | – | – | reliably intercept the pro-oxidative effect of tocopherol oxidation products | 0 nmoles per mg of LDL protein | 0 nmoles per mg of LDL protein | 1.9 nmoles per mg of LDL protein | 2.6 nmoles per mg of LDL protein | protection against loss of alpha-tocopherol and coenzyme Q-10 (tissue): protection against the loss of alpha-tocopherol and coenzyme Q-10; antioxidative effect compared to ascorbic acid, alpha-tocopherol and glutathione ([1]; idebenone 10 μmoles/liter vs ascorbic acid 50, alpha-tocopherol 100, glutathione 50 μmoles/liter): clearly stronger antioxidative effect; toxic effects [2]: no toxic effects
O=C1O[C@H]([C@@H](O)CO)C(O)=C1O [ascorbic acid] | 0 nmoles per mg of LDL protein | 1.7 nmoles per mg of LDL protein | 1.7 nmoles per mg of LDL protein | 25.3 nmoles per mg of LDL protein | significantly lower antioxidative effect | – | – | – | – | –
COC1=C(OC)C(=O)C(C/C=C(\C)CC/C=C(\C)CC/C=C(\C)CC/C=C(\C)CC/C=C(\C)CC/C=C(\C)CC/C=C(\C)CC/C=C(\C)CC/C=C(\C)CCC=C(C)C)=C(C)C1=O [coenzyme Q-10] | – | – | – | – | – | 69 nmoles per mg of LDL protein | 115.8 nmoles per mg of LDL protein | 26.8 nmoles per mg of LDL protein | 143.7 nmoles per mg of LDL protein | –
Cc1c(C)c2c(c(C)c1O)CC[C@@](C)(CCC[C@H](C)CCC[C@H](C)CCCC(C)C)O2 [α-tocopherol, alpha-tocopherol] | – | – | – | – | – | – | – | – | – | lipid hydroperoxides ([1]; oxidation system A (Mk + LDL), 100 μmoles/litre antioxidant, 8 hours): 32.8 nmoles per mg of LDL protein; lipid hydroperoxides ([1]; oxidation system A (Mk + LDL), 100 μmoles/litre antioxidant, 24 hours): 198.0 nmoles per mg of LDL protein
